This passage reports EC50 results from US20140221378A1, “SUBSTITUTED SPIROPYRIDO[1,2-a]PYRAZINE DERIVATIVE AND PHARMACEUTICAL USE OF SAME AS HIV INTEGRASE INHIBITOR” (priority 2012, published 2014).

In the assay the test system is HIV-1 NL4-3 strain. Nature of the assay: Antiviral activity in acute infection system of MT-4 cell with HIV-1 NL4-3 strain (Cell Titer-Glo). It is filed as cell-based. (ATP-based viability assays read luminescence as a measure of living cells.)
[1] abbreviates: antiviral activity, MT-4 cells infected with HIV-1 NL4-3 strain, MOI 0.05, 5 days culture, Cell Titer-Glo luminescence, read-out: EC50.

Counter-ions that a name gives are not always drawn. Like-named read-outs stand apart in the source and are kept apart here.

For the setting “Human immunodeficiency virus 1, NL43, MT4, 120 h, antiviral activity, MT-4 cells infected with HIV-1 NL4-3 strain, MOI 0.05, 5 days culture, Cell Titer-Glo luminescence”, `CO[C@H]1C[C@]2(CN(C)C(=O)c3c(O)c(=O)c(C(=O)NCc4cccc(Cl)c4F)cn32)C1` [Example 1, N-(3-chloro-2-fluorobenzyl)-9′-hydroxy-cis-3-methoxy-2′-methyl-1′,8′-dioxo-1′,2′,3′,8′-tetrahydrospiro[cyclobutane-1,4′-pyrido[1,2-a]pyrazine]-7′-carboxamide hydrochloride] displayed an EC50 of 3.1 nM.

`CO[C@H]1C[C@]2(Cn3cc(C(=O)NCc4cccc(Cl)c4F)c(=O)c(O)c3C(=O)N2C)C1` [Example S63, N-(3-chloro-2-fluorobenzyl)-9′-hydroxy-cis-3-methoxy-2′-methyl-1′,8′-dioxo-1′,2′,4′,8′-tetrahydrospiro[cyclobutane-1,3′-pyrido[1,2-a]pyrazine]-7′-carboxamide hydrochloride]: the EC50 (Human immunodeficiency virus 1, NL43, MT4, 120 h, antiviral activity, MT-4 cells infected with HIV-1 NL4-3 strain, MOI 0.05, 5 days culture, Cell Titer-Glo luminescence, read-out: EC50) was found to be 4 nM.

Turning to `CCN1C[C@@]2(C[C@@H]2COC)n2cc(C(=O)NCc3cccc(C(F)(F)F)c3F)c(=O)c(O)c2C1=O` [Example T27, (1S, 2S)-2′-ethyl-N-(2-fluoro-3-(trifluoromethyl)benzyl)-9′-hydroxy-2-(methoxymethyl)-1′,8′-dioxo-1′,2′,3′,8′-tetrahydrospiro[cyclopropane-1,4′-pyrido[1,2-a]pyrazine]-7′-carboxamide], the EC50 (Human immunodeficiency virus 1, NL43, MT4, antiviral activity, MT-4 cells acutely infected with HIV-1 NL4-3 strain (wild type), Cell Titer-Glo, read-out: EC50) was determined as 97 nM.

As for “N-(3-chloro-2-fluorobenzyl)- 2′-ethyl-9′-hydroxy-trans-3- (hydroxymethyl)-1′,8′-dioxo- 1′,2′,4′,8′- tetrahydrospiro[cyclobutane- 1,3′-pyrido[1,2-a]pyrazine]- 7′-carboxamide hydrochloride [Example S58]”, the EC50 under setting [1] turned out to be 6.8 nM.

With “cis-3-(benzyloxy)-N-(2,4- difluorobenzyl)-9′-hydroxy- 2′-isopropyl-1′,8′-dioxo- 1′,2′,3′,8′- tetrahydrospiro[cyclobutane- 1,4′-pyrido[1,2-a]pyrazine]- 7′-carboxamide hydrochloride [Example S2]”, the EC50 under setting [1] came out at 10 nM.

A word on the EC50: it is the concentration giving half of the maximal effect.
